Assay results reported in PMC3491656 (Journal of medicinal chemistry, 2012).
Entries after “also recorded” stand apart in the source; their conditions may differ.

How the values were obtained:
TrkB [1] = target: TrkB (Rattus norvegicus, UniProt Q63604); assay: TrkB activation in primary cortical cultures; format: cell-based; conditions: 500 nM, 15 min; for TrkB activation (agonistic activity): primary cortical cultures from E17 rat embryos, p-TrkB immunoblotting (Figure 2B); for TrkB and Akt activation in primary neurons: rat primary neurons, immunoblotting and p-Akt ELISA (Figure 4B)
Chain of TrkB (Rattus norvegicus, UniProt Q63604) (Q63604 32-821): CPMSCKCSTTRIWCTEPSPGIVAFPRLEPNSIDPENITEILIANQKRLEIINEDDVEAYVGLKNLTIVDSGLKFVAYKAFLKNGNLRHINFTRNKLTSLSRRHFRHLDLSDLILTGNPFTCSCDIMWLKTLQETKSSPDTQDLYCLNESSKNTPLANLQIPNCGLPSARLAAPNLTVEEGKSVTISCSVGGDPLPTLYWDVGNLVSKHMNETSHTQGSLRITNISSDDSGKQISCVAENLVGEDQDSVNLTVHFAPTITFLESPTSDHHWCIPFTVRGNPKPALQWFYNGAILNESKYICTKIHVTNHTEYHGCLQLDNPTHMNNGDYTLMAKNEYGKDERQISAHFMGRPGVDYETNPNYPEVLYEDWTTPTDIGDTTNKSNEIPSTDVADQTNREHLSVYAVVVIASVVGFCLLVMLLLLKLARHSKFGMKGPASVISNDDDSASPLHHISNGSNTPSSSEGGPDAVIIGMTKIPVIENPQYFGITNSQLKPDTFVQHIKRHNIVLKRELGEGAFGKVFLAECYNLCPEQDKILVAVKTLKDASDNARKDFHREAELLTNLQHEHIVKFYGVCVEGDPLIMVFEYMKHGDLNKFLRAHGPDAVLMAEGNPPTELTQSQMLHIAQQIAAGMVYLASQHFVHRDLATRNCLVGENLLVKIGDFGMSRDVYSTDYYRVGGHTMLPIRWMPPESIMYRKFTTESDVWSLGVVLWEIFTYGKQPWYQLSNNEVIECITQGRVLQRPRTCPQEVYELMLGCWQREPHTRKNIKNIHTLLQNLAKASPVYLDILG

[2] = In vivo pharmacokinetic studies in mice
TrkB [3] = target: T1, TrkB (Mus musculus, UniProt P15209); assay: TrkB activation in mouse brain after single oral administration; format: in vivo, C57 BL/6J mice; conditions: 1 mg/kg oral; for TrkB activation in mouse brain: hippocampus
T1 sequence (P15209 32-821): as the sequence (Q63604 32-821) above, with M3T, T9S, T10A, I32V, K63R, G84S, T153M, I185L, T394S, N770S counted along it

p-Akt and p-MAPK = assay: Downstream p-Akt and p-MAPK signaling in mouse brain; format: in vivo, C57 BL/6J mice; conditions: hippocampus; for downstream p-Akt and p-MAPK signalings: 1 mg/kg oral, 4 h; for downstream p-Akt activity: 2.5 mg/kg oral, 3 weeks
[4] = Preliminary in vivo metabolism study; conditions: Supplemental Figure 2
male C57BL/6J mice [5] = assay: Forced swim test; format: in vivo; conditions: for immobility in forced swim test: 5 mg/kg oral once a day for 21 days
male C57BL/6J mice [6] = assay: Locomotor activity assay; format: in vivo
male C57BL/6J mice [7] = assay: Tail suspension test; format: in vivo; conditions: 2.5 mg/kg oral once a day for 3 weeks
[8] = Reactive metabolite screening; format: in vitro ADME; conditions: reactive metabolic screening
TrkB [9] = target: T1, TrkB; assay: TrkB activation in mouse brain after chronic oral treatment; format: in vivo, C57 BL/6J mice; conditions: for TrkB activation in brain tissues (anti-p-TrkB Y816 and Y706 immunoblotting) / TrkB phosphorylation in hippocampus (immunohistochemistry, anti-p-TrkB 816): 2.5 mg/kg oral; for TrkB activation in brain tissues (anti-p-TrkB Y816 and Y706 immunoblotting) / TrkB phosphorylation in cortex and hippocampus: 3 weeks; for TrkB activation in brain tissues (anti-p-TrkB Y816 and Y706 immunoblotting): after behavioral tests; for TrkB phosphorylation in hippocampus (immunohistochemistry, anti-p-TrkB 816): chronic, brain sections; for TrkB phosphorylation in cortex and hippocampus: 5 mg/kg oral, vs vehicle
[10] = Human plasma protein binding; format: in vitro ADME; conditions: 5 μM
TrkA receptor = TrkA receptor (Mus musculus, UniProt Q3UFB7); assay: TrkA activation in mouse brain after chronic oral treatment; format: in vivo, mice; conditions: 5 mg/kg oral, anti-p-TrkA 794
Chain of TrkA receptor (Q3UFB7 34-799): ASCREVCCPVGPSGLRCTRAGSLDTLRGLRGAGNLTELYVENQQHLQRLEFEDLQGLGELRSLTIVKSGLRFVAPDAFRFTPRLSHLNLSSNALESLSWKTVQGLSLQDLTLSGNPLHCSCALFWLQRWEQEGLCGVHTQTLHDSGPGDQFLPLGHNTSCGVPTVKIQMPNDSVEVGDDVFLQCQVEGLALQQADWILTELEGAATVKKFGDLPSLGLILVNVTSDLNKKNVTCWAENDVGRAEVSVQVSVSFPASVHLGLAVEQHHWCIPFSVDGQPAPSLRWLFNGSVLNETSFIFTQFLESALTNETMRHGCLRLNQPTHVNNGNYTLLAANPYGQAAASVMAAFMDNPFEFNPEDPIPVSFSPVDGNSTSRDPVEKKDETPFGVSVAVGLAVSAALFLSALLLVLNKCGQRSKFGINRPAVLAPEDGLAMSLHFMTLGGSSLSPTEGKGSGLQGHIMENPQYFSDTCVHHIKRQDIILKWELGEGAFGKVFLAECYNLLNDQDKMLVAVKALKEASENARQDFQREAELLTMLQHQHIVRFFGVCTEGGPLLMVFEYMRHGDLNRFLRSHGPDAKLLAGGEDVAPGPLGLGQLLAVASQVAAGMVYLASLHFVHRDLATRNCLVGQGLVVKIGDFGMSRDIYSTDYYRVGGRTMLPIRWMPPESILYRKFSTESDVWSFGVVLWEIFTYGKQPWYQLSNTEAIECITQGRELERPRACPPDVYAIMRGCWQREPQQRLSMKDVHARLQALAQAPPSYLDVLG

P-Akt S473 = P-Akt S473 ELISA in drug-treated mouse brain; format: in vivo, C57 BL/6J mice; conditions: 1 mg/kg oral, time course
hERG = hERG (Homo sapiens, UniProt Q12809); assay: hERG inhibition assay; format: in vitro ADME
Chain of hERG (Q12809 whole entry): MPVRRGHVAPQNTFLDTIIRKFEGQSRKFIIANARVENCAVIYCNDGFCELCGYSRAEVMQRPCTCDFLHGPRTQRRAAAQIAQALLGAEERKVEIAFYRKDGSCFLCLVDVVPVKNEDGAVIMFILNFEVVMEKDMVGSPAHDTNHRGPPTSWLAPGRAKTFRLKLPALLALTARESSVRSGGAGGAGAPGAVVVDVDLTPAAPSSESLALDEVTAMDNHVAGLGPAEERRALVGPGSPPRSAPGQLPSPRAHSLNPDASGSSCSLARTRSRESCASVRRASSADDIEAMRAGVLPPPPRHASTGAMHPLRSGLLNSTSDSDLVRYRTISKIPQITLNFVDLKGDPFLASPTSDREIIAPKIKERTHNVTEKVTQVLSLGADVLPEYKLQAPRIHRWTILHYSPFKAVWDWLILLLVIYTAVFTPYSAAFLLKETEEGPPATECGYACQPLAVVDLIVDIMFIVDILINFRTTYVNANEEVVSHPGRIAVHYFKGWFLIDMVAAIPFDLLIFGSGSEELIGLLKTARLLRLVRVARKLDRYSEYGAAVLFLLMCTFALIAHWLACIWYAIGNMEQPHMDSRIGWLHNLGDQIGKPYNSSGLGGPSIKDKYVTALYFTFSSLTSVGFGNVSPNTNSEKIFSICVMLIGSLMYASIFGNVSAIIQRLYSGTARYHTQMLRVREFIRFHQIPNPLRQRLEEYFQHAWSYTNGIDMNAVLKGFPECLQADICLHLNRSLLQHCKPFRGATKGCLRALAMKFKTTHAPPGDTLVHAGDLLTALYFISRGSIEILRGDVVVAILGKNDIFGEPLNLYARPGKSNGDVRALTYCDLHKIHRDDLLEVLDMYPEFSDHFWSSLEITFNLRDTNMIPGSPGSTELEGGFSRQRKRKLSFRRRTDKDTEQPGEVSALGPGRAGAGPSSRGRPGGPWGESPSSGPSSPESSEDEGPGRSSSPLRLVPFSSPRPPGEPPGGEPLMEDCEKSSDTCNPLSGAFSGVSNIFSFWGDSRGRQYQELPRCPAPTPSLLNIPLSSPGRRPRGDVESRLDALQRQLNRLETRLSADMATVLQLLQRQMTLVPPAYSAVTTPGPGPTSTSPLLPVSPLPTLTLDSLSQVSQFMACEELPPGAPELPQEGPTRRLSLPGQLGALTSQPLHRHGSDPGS

HepG2 cells = assay: Comet assay; format: cell-based, human; conditions: 100 μM, 24 h
[11] = 2.5 mg/kg oral once a day for 3 weeks
[12] = 5 mg/kg oral for 21 days, tested at day 22

O=c1cc(-c2ccccc2)oc2c(O)c(O)cc(F)c12 [compound 33]
TrkB activation (agonistic activity) (TrkB [1]): did not significantly affect 7,8-DHF’s TrkB agonistic activity

CN(C)c1ccc(-c2cc(=O)c3c(F)cc(O)c(O)c3o2)cc1 [compound 35]
TrkB activation (agonistic activity) (TrkB [1]): did not significantly affect 7,8-DHF’s TrkB agonistic activity

O=c1cc(-c2ccc(F)cc2)oc2c(O)c(O)ccc12 [compound 30]
TrkB activation (agonistic activity) (TrkB [1]): inhibited its activity

O=c1cc(-c2ccccc2)[nH]c2c(O)c(O)ccc12 [compound 26]
TrkB activation (agonistic activity) (TrkB [1]): diminished agonistic activity

O=c1cc(-c2ccc(F)cc2)[nH]c2c(O)c(O)ccc12 [compound 25]
TrkB activation (agonistic activity) (TrkB [1]): diminished agonistic activity

O=c1c(F)c(-c2ccccc2)oc2c(O)c(O)ccc12 [compound 34]
TrkB activation (agonistic activity) (TrkB [1]): did not significantly affect 7,8-DHF’s TrkB agonistic activity

CN(C)c1ccc(-c2cc(=O)c3ccc(O)c(O)c3o2)cc1 [compound 24, 4′-dimethylamino-7,8-dihydroxyflavone]
Bioavailability ([2]; PO, 5 mg/kg): not measurable
AUC(0-t) ([2]; mouse, plasma, iv, 1 mg/kg, AUClast): ~98.8 ng·h/mL
half-life ([2]; mouse, plasma, iv, 1 mg/kg, T1/2, IV): ~9 min
TrkB activation in mouse brain (TrkB [3]; 4 h): clearly activated the TrkB receptor; also recorded: strongest TrkB stimulatory effect
downstream p-Akt and p-MAPK signalings (p-Akt and p-MAPK): activated

O=c1cc(-c2ccccc2)oc2c(O)c(O)ccc12 [7,8-DHF, 7,8-dihydroxyflavone]
in vivo metabolic pathways [4]: subjected to oxidation, glucuronidation, sulfation and methylation

O=c1cc(-c2ccc(N3CCCC3)cc2)oc2c1ccc1cc[nH]c12 [compound 23, 2-(4-(Pyrrolidin-1-yl)phenyl)pyrano[3,2-g]indol-4(9H)-one]
reduction of immobility in FST compared to vehicle control (male C57BL/6J mice [5]; 2.5 mg/kg oral gavage once a day for 3 weeks): had no effect
TrkB and Akt activation in primary neurons (TrkB [1]): higher activity than compound 11 in triggering TrkB and Akt activation
downstream p-Akt activity (p-Akt and p-MAPK): upregulated
locomotor activity (male C57BL/6J mice [6]; [11]): neither compound 13 nor 23 altered the motion activity
immobility in tail suspension test (male C57BL/6J mice [7]): lacked efficacy
adduct formation (Comment) [8]: formed numerous adducts
TrkB activation in brain tissues (anti-p-TrkB Y816 and Y706 immunoblotting) (TrkB [9]): markedly activated TrkB
TrkB phosphorylation in hippocampus (immunohistochemistry, anti-p-TrkB 816) (TrkB [9]): elevated TrkB phosphorylation in hippocampus
Binding classification [10]: High Binding

O=c1c(F)c(-c2cccc(O)c2)oc2c(O)c(O)ccc12 [compound 32]
immobility in forced swim test (male C57BL/6J mice [5]): significantly reduced the immobility
TrkB activation (agonistic activity) (TrkB [1]): did not significantly affect 7,8-DHF’s TrkB agonistic activity; also recorded: barely affects TrkB stimulatory activity
time of peak TrkB activation in mouse brain (TrkB [3]; time course): 1 to 2 h
TrkB activation in mouse brain (time course comparison) (TrkB [3]; various time points): less effect on TrkB activation than compound 11
TrkA activation in mouse brain (TrkA receptor): TrkB but not TrkA is activated
time at which p-Akt returned to the baseline (P-Akt S473): 8 h
time of peak p-Akt activation (ELISA) (P-Akt S473; 20 μg brain lysates): 1 h
locomotor activity (male C57BL/6J mice [6]; [12]): but not 32 significantly increased the locomotor activity
TrkB phosphorylation in cortex and hippocampus (TrkB [9]): clearly escalated TrkB phosphorylation

O=c1cc(-c2ccc(N3CCOCC3)cc2)oc2c(O)c(O)ccc12 [compound 29, 4′-morpholino-7,8-DHF]
TrkB activation (agonistic activity) (TrkB [1]): comparable activity as the lead compound 24

Cc1nc2ccc3c(=O)cc(-c4ccc(N5CCCC5)cc4)oc3c2[nH]1 [compound 13, 2-methyl-8-(4-(pyrrolidin-1-yl)phenyl)chromeno[7,8-d]imidazol-6(1H)-one]
TrkB and Akt activation in primary neurons (TrkB [1]): higher activity than compound 11 in triggering TrkB and Akt activation
hERG inhibition (hERG): did not possess any concentration-dependent inhibition activity of hERG; also recorded: trifling
ACINF ([2]; PO, 10 mg/kg): 1293 ng·min/mL
TrkB activation in mouse brain (TrkB [3]; 2 h): triggers TrkB activation in mouse brain
downstream p-Akt activity (p-Akt and p-MAPK): upregulated
locomotor activity (male C57BL/6J mice [6]; [11]): neither compound 13 nor 23 altered the motion activity
immobility in tail suspension test (male C57BL/6J mice [7]): significantly reducing the immobility
adduct formation (Comment) [8]: quite stable in vitro; also recorded: No adduct detected
TrkB activation in brain tissues (anti-p-TrkB Y816 and Y706 immunoblotting) (TrkB [9]): markedly activated TrkB
TrkB phosphorylation in hippocampus (immunohistochemistry, anti-p-TrkB 816) (TrkB [9]): elevated TrkB phosphorylation in hippocampus
Binding classification [10]: High Binding

CN(C)c1cccc(-c2cc(=O)c3ccc(O)c(O)c3o2)c1 [compound 28, 3′-dimethylamino-7,8-DHF]
TrkB activation (agonistic activity) (TrkB [1]): comparable activity as the lead compound 24

CN(C)c1ccc(-c2cc(=O)c3ccc4nc[nH]c4c3o2)cc1 [compound 11, 8-(4′-(Dimethylamino)phenyl)chromeno[7,8-d]imidazol-6(1H)-one]
immobility in forced swim test (male C57BL/6J mice [5]): significantly reduced the immobility
TrkB activation (agonistic activity) (TrkB [1]): stronger effect in triggering TrkB activation than the lead compound
TrkB activation in mouse brain (TrkB [3]; 4 h): robustly activated TrkB; also recorded: strongest TrkB stimulatory effect
time at which TrkB activation faded away (TrkB [3]; time course): 16 h
time of peak TrkB activation in mouse brain (TrkB [3]; time course): 4 h
TrkA activation in mouse brain (TrkA receptor): TrkB but not TrkA is activated
downstream p-Akt and p-MAPK signalings (p-Akt and p-MAPK): activated
locomotor activity (male C57BL/6J mice [6]; [12]): substantially augmented locomoter activity; also recorded: significantly increased the locomotor activity
DNA lesions (Comet assay) (HepG2 cells): induced DNA lesions
TrkB phosphorylation in cortex and hippocampus (TrkB [9]): clearly escalated TrkB phosphorylation
